Results: US20240316027A1, “USE OF MARAVIROC IN PREPARATION OF DRUGS FOR TREATMENT OF MUSCLE DEGENERATIVE DISEASES” (Center for Neuromusculoskeletal Restorative Medicine Limited, priority 2023, published 2024)

How the values were obtained:
[1] = system: aged mice with sarcopenia; experiment: Maraviroc treatment of aged mice with sarcopenia; assay type: in vivo, mouse; conditions: 16-month-old mice, 2.5 mg/kg intraperitoneally twice a week for 6 months
Protocol: Next, to further illustrate the possible application for treating other muscle degenerative diseases, the effectiveness of Maraviroc is tested in aged mice with sarcopenia. 3 pairs of 16-month-old mice are intraperitoneally injected with vehicle (5% DMSO) or Maraviroc (2.5 mg/kg) twice a week for 6 months, as shown in FIG. 7. […] Overall, the Maraviroc treatment delays muscle aging and rejuvenates the mice.

[2] = system: dKO mice; experiment: Maraviroc treatment of dystrophic dKO (YY1; mdx) and Ctrl mice, DMD mouse model; assay type: in vivo; conditions: for voluntary exercise (running distance on exercise wheels): recorded daily for one week, FIG. 6
Excerpt: The research object of this invention is based on a mouse model of human Duchenne muscular dystrophy (DMD), a congenital mutation in the muscular dystrophy protein leading to spontaneous periodic muscle damage and repair. Chronic inflammation and fibrosis are typical hallmarks of DMD and may contribute to impaired skeletal muscle regeneration. […] These YY1; mdx mice (so called double knock out dKO) display decreased body and muscle weight, severe inflammation and fibrosis, and reduced lifespan. As illustrated in FIGS. 1A-1D, the body weights are continuously monitored and measured at 3M, 5M and 7M intervals and the dKO mice show continuous weight loss compared to Ctrl mice (see FIG. 1A) as time progresses. Furthermore, the reduction in muscle weight (tibialis anterior) and thickness (diaphragm) is also observed over time in contrast to Ctrl mice (see FIG. 1B). […] Meanwhile, excessive inflammation is observed on the dKO muscles as shown by the amount of immune cells infiltration in the interstitial area (see FIG. 1C), along with aggravated fibrosis (detected by Masson's Trichrome staining, see FIG. 1D).
To test the therapeutic effect of Maraviroc on the dystrophic muscles, the above-described Ctrl and dKO mice are treated with dimethyl sulfoxide (DMSO) or Maraviroc respectively.
Next, the muscle morphology is evaluated on the above-treated four groups of mice.
Next it is examined if the treatment improves muscle functions by testing the muscle performance in exercises. Both endurance and voluntary exercises are employed. For endurance exercise, mice are first placed in a treadmill machine, where the bottom of the running track is equipped with an electric shock device to force the mice to continue running as illustrated in FIG. 5. The initial speed is set to 10 cm/s and increased by 5 cm/s every two minutes. By recording the running distance until the mice are exhausted, their endurance strength is determined. […] For voluntary exercise, the mice are placed in cages equipped with exercise wheels, which are connected to counters that accurately record the distance travelled by the mice on the wheels, as illustrated in FIG. 6. The mice are continuously housed in the cages for one week, and their exercise distance on the wheels is recorded daily.

[3] = Phase IIa study; cited from earlier work
[4] = dKO mice, 60 ug in 5% DMSO intraperitoneally every two days for one month, FIG. 2

Structure (SMILES): Cc1nnc(C(C)C)n1[C@@H]1C[C@H]2CC[C@@H](C1)N2CC[C@H](NC(=O)C1CCC(F)(F)CC1)c1ccccc1 [Maraviroc]
- TA muscle weight ([1]; FIG. 8): restored
- fiber size ([1]; FIG. 8): increased
- inflammation ([1]; FIG. 8): attenuated
- muscle morphology (H&E staining) ([1]; FIG. 8): remarkable improvement
- muscle functions (grip force and treadmill running) ([1]; FIG. 9): restored
- number of FAPs and macrophages ([1]; FIG. 10): reduced number
- number of MuSCs ([1]; FIG. 10): increased number
- muscle morphology, immune cell infiltration and inflammation (H&E staining of TA muscles) ([2]; Ctrl and dKO muscles, FIG. 3): improved morphology with reduced immune cell infiltration and inflammation
- effect on body weight of Ctrl mice ([2]; Ctrl mice, 60 ug intraperitoneally every two days for one month, FIG. 2): no obvious effect
- voluntary exercise (running distance on exercise wheels) ([2]; Ctrl mice): high level of voluntary exercise
- endurance strength (treadmill running distance until exhausted) ([2]; dKO mice, versus dKO mice treated with DMSO, FIG. 5): significantly higher
- body weight [2, 4]: significantly restored
- muscle weight [2, 4]: significantly restored
- muscle fibrosis (Masson's Trichrome staining) ([2]; dKO mice, FIG. 4): significantly alleviate
- voluntary exercise (running distance on exercise wheels) ([2]; dKO mice): consistent increase in running distance over time
- efficacy in the treatment of RA [3]: no efficacy
